Data reported in publication PMC10590756, “Glutarate regulates T cell metabolism and anti-tumour immunity” (Nature Metabolism, 2023).

What was measured:
murine CD8^+ T cells = assay: Cell growth and viability of murine CD8^+ T cells; format: cell-based; settings: 7 days
Description: After 7 days of culture, we assessed the abundance of CD62L^hiCD44^hi (TCM-like) T cells by flow cytometry (Fig. 1a). We additionally determined the effect of each compound on cell growth and viability (Fig. 1b and Extended Data Fig. 1a).
B16F10 cells were originally purchased from ATCC (catalogue no. CRL-6475) and genetically modified to express OVA, enhanced green fluorescent protein (GFP) and neomycin phosphotransferase. The resulting OVA expression B16F10-OVA cells were cultured in DMEM (catalogue no. 11995065, Thermo Fisher Scientific) containing 0.75 mg ml^−1 G418 sulphate (catalogue no. 10131027, Thermo Fisher Scientific). HEK 293T cells were purchased from Takara Bio (catalogue no. 632180) and cultured in DMEM. SKOV3 was purchased from ATCC (catalogue no. HTB-77) and cultured in McCoy’s 5A (Modified) Medium (catalogue no. 16600082, Thermo Fisher Scientific). Raji-GFP-Luc cells were purchased from Biocytogen (catalogue no. B-HCL-010) and cultured in Roswell Park Memorial Institute (RPMI) 1640 (catalogue no. 21875, Thermo Fisher Scientific). Jurkat cells were purchased from ATCC (catalogue no. TIB-152) and cultured in RPMI 1640. RAW 264.7 cells were purchased from ATCC (catalogue no. TIB-71) and cultured in RPMI 1640. HeLa cells were a gift from P. Lehner (University of Cambridge) and were authenticated using short tandem repeat profiling (Eurofins Genomics). HeLa cells were cultured in DMEM. MEFs were isolated from macerated embryonic day (E) 12.5–13.5 embryos. A whole litter of embryos without sex selection were used. Stable transfection with SV40 large T antigen passage 3 was used for immortalization. Cells were subcultured over 17 more passages and maintained in DMEM[63]. All media was supplemented with 10% FCS (catalogue no. 10270106, Gibco), 100 U ml^−1 penicillin and 100 µg ml^−1 streptomycin (catalogue no. P4333, Sigma-Aldrich). […] Cell number and viability was determined using the ADAM-MC Automated Cell Counter (NanoEntek), CellDrop Automated Cell Counter (DeNovix) or TC20 Automated Cell Counter (Bio-Rad Laboratories). […]

[1] = system: H3 lysine methylation in human CD8^+ T cells; assay: Histone 3 methylation western blot; format: cell-based; settings: 7 days
Description: Histones were extracted with the Histone Extraction Kit (catalogue no. ab113476, Abcam). Proteins were separated by SDS–PAGE and transferred to polyvinylidene fluoride (PVDF) membranes. Total protein stain was obtained using non-stain protein labelling reagent (catalogue no. A44448, Thermo Fisher Scientific). Membranes were then blocked in 5% milk prepared in PBS plus 0.05% Tween-20, incubated with primary antibodies overnight at 4 °C and horseradish peroxidase (HRP)-conjugated secondary antibodies (catalogue nos. HAF008 and HAF007, R&D Systems) for 1 h the next day. After enhanced chemiluminescence (ECL) exposure (catalogue no. GERPN2106, Sigma-Aldrich), membranes were imaged using an iBrightCL1000 (Thermo Fisher Scientific). […] 13998); and anti-H3k27ac (catalogue no.

Row | Compound | concentration from which cell growth is decreased (murine CD8^+ T cells) [µM] | H3K9me2 levels on addition of αKG to DEG ([1]; 500 µM αKG with 500 µM DEG) | DEG-induced increase in H3K9 and H3K27 trimethylation on addition of αKG ([1]; equimolar αKG (500 µM) with 500 µM DEG)
1 | CCCCCCCCOC(=O)[C@@H](O)CCC(=O)[O-].[Na+] [octyl ester S-2HG, (2S)-2-hydroxyglutaric acid octyl ester sodium salt, reference compound] | ≥ 400 | – | –
2 | O=C(O)CCC(=O)C(=O)O [αKG, α-ketoglutarate, reference compound] | – | not reduced | abrogated
